Source: ChEMBL document CHEMBL1772989, “Non-peptide metabolites from the genus Bacillus” (J Nat Prod, 2011)

What was measured:
Staphylococcus aureus = experiment: Antibacterial activity against Staphylococcus aureus ATCC 10832; format: functional
Pseudomonas aeruginosa = experiment: Antibacterial activity against Pseudomonas aeruginosa ATCC 14210; format: functional

MIC (Staphylococcus aureus)	MIC (Pseudomonas aeruginosa)	SMILES
> 100 mg/L	> 100 mg/L	CC(C)CCCCCCCCCC(=O)N[C@@H](CC(N)=O)C(=O)O [LIPOAMIDE C]
> 100 mg/L	> 100 mg/L	CC(C)CCCCCCCCC(=O)N[C@@H](CC(N)=O)C(=O)O [LIPOAMIDE B]
> 100 mg/L	> 100 mg/L	CC(C)CCCCCCCC(=O)N[C@@H](CC(N)=O)C(=O)O [LIPOAMIDE A]
